Some test systems named below: CCRF-CEM leukemia; HCC-2998 colon; HOP-62 NSCLC; KM12 colon; M14 melanoma; MALME-3M melanoma; MCF7 breast; SK-MEL-28 melanoma; SK-MEL-5 melanoma; T-47D breast; TK-10 renal; UACC-257 melanoma; UACC-62 melanoma; UO-31 renal; NCI-H460 lung; HS 578T breast.
Holding throughout (test): NCI-60 cell line screen, 48 h

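In this assay, cells in 96-well plates receive the compound at five concentrations for 48 hours. Endpoints are linearly interpolated between the surrounding concentrations. At the GI50, growth is halved. Definition used: TGI = concentration required for complete inhibition of growth.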

Turning to `Cc1[nH]c(=O)nc(NCCNCCO)c1C(=O)Nc1c2ccccc2nc2ccccc12`, the TGI with CCRF-CEM leukemia, in the experiment on HCC-2998 colon, in the experiment with HOP-62 NSCLC, in the experiment on KM12 colon, in the experiment on M14 melanoma and in the experiment with MALME-3M melanoma was more than 100 µM throughout. Moreover, the TGI with MCF7 breast, with SK-MEL-28 melanoma, with SK-MEL-5 melanoma, in the experiment with T-47D breast, with TK-10 renal and in the experiment with UACC-257 melanoma was more than 100 µM each time. Besides, the TGI in the experiment with UACC-62 melanoma and in the experiment with UO-31 renal was more than 100 µM throughout.
As for `COC(=O)[C@]1(C)CCC[C@@]2(C)C1CCC1=CC3(C(C)C)CCC12OO3` (some centres not stated), the TGI in the experiment with CCRF-CEM leukemia, with HCC-2998 colon, in the experiment on HOP-62 NSCLC, with KM12 colon, in the experiment on M14 melanoma and in the experiment on MALME-3M melanoma was more than 100 µM in each case. Further, the TGI with NCI-H460 lung, in the experiment with SK-MEL-5 melanoma, in the experiment on TK-10 renal, in the experiment with UACC-257 melanoma, with UACC-62 melanoma and with UO-31 renal was more than 100 µM each time.
For `NS(=O)(=O)c1ccc(CNc2nc(-c3cccs3)nc3ccc(I)cc23)cc1`, the GI50 in the experiment on CCRF-CEM leukemia is 21.8 µM; in the experiment on UACC-257 melanoma, 14 µM. Moreover, the TGI in the experiment on CCRF-CEM leukemia amounted to 59.7 µM; in the experiment with HCC-2998 colon it was 27.7 µM; in the experiment on HOP-62 NSCLC, 49.9 µM; in the experiment on KM12 colon, 23.7 µM; in the experiment with M14 melanoma it was 28.4 µM; in the experiment on MALME-3M melanoma, 27.9 µM. Besides, the TGI in the experiment with MCF7 breast was 16.1 µM; in the experiment on NCI-H460 lung, 29.6 µM; with SK-MEL-28 melanoma, 40.2 µM; with SK-MEL-5 melanoma, 27 µM; in the experiment with T-47D breast, 1.81 µM; in the experiment with TK-10 renal, 28.1 µM. Also, the TGI with UACC-257 melanoma was 27.5 µM; in the experiment on UACC-62 melanoma it was 31.5 µM; in the experiment with UO-31 renal, 4.45 µM.
With `c1cncc(-c2ncc3cccnc3n2)c1`, the TGI in the experiment with CCRF-CEM leukemia, in the experiment on HCC-2998 colon, in the experiment on HOP-62 NSCLC, with HS 578T breast, in the experiment with KM12 colon and with MALME-3M melanoma was more than 100 µM each time. Also, the TGI with MCF7 breast, in the experiment with NCI-H460 lung, with SK-MEL-5 melanoma, in the experiment with TK-10 renal, with UACC-257 melanoma and in the experiment on UACC-62 melanoma was more than 100 µM each time. Moreover, the TGI in the experiment on UO-31 renal was more than 100 µM.
As for `O=C1CC2(CCNCC2)C(=O)N1N1CCCC1`, the TGI with CCRF-CEM leukemia, with HCC-2998 colon, with HOP-62 NSCLC, in the experiment on KM12 colon, in the experiment with M14 melanoma and in the experiment on MALME-3M melanoma was more than 100 µM in each case. The TGI in the experiment with MCF7 breast, in the experiment with SK-MEL-5 melanoma, in the experiment with T-47D breast, in the experiment on TK-10 renal, with UACC-257 melanoma and with UACC-62 melanoma was more than 100 µM in each case. Besides, the TGI in the experiment on UO-31 renal was more than 100 µM.
As to `COc1ccc2c(c1)OC[C@@H]1c3cc4c(cc3O[C@H]21)OCO4`, the TGI with CCRF-CEM leukemia, with HCC-2998 colon, in the experiment on HOP-62 NSCLC, in the experiment on KM12 colon, in the experiment on M14 melanoma and in the experiment with MALME-3M melanoma was more than 100 µM each time. The TGI in the experiment on NCI-H460 lung, in the experiment on SK-MEL-28 melanoma, with SK-MEL-5 melanoma, in the experiment with TK-10 renal and in the experiment on UO-31 renal was more than 100 µM throughout.
`CCOC(=O)c1[nH]c2ccccc2c1C(=O)C[C@H](NC(=O)C(F)(F)F)C(=O)OC`: the TGI in the experiment with CCRF-CEM leukemia, with HCC-2998 colon, with HOP-62 NSCLC, in the experiment with HS 578T breast, with KM12 colon and with M14 melanoma was more than 100 µM throughout. For the same compound, the TGI in the experiment with MALME-3M melanoma, in the experiment with MCF7 breast, in the experiment on NCI-H460 lung, in the experiment with SK-MEL-28 melanoma, with SK-MEL-5 melanoma and in the experiment on TK-10 renal was more than 100 µM throughout. For the same compound, the TGI with UACC-257 melanoma and in the experiment with UO-31 renal was more than 100 µM each time.
Consider `Cc1n[nH]c(=O)n1/N=C/c1c[nH]c2ccccc12`, for which the TGI in the experiment on CCRF-CEM leukemia, in the experiment with HCC-2998 colon, in the experiment on HOP-62 NSCLC, in the experiment on KM12 colon, in the experiment on M14 melanoma and with MALME-3M melanoma was more than 100 µM in each case. The TGI with MCF7 breast, in the experiment on NCI-H460 lung, in the experiment with SK-MEL-28 melanoma, in the experiment on T-47D breast, with UACC-257 melanoma and with UACC-62 melanoma was more than 100 µM each time. This compound also had a TGI in the experiment with UO-31 renal of more than 100 µM.
Take `COP1(=O)Oc2ccccc2C(=O)C(C(F)(F)F)(C(F)(F)F)O1` (configuration not stated): the TGI with CCRF-CEM leukemia, in the experiment on HCC-2998 colon, with HOP-62 NSCLC, in the experiment on KM12 colon, in the experiment with M14 melanoma and with NCI-H460 lung was more than 100 µM throughout. Also, the TGI with SK-MEL-28 melanoma, in the experiment with SK-MEL-5 melanoma, in the experiment with TK-10 renal, in the experiment on UACC-257 melanoma, in the experiment with UACC-62 melanoma and with UO-31 renal was more than 100 µM in each case.
With `CC(C)OP(=O)(OC(C)C)C(=Nc1ccccc1)NNc1ccc([N+](=O)[O-])cc1`, the TGI is 56.9 µM with CCRF-CEM leukemia; more than 100 µM in the experiment on HCC-2998 colon; more than 100 µM with HOP-62 NSCLC; 43.6 µM in the experiment with KM12 colon; 41.4 µM with M14 melanoma; 50 µM in the experiment on MALME-3M melanoma. Besides, the TGI in the experiment with NCI-H460 lung was more than 100 µM; with SK-MEL-28 melanoma it was 89.5 µM; with SK-MEL-5 melanoma it was 27.1 µM; with TK-10 renal, 46.2 µM; in the experiment with UACC-257 melanoma, more than 100 µM; in the experiment with UACC-62 melanoma, 29.1 µM. The TGI with UO-31 renal was more than 100 µM.

For the origin of these results see PubChem BioAssay (NCI).
